According to patent US20250092065A1, “2-(INDAZOL-5-YL)-6-(PIPERIDIN-4-YL)-1,7-NAPHTHYRIDINE DERIVATIVES AND RELATED COMPOUNDS AS MODULATORS FOR SPLICING NUCLEIC ACIDS AND FOR THE TREATMENT OF PROLIFERATIVE DISEASES” (REMIX THERAPEUTICS INC., priority 2022, published 2025):
Where two headings read alike, the source gives them in different places.

Assays:
MYB mRNA = assay: RT-qPCR splicing assay, MYB mRNA canonical (CJ) and alternative (AJ) junction; assay type: cell-based, human; conditions: Homo sapiens; for AC50: MYB alternative junction mRNA, read-out: MYB AJ (increase in AJ mRNA, AC50)
Outline: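 Both isoforms, CJ and AJ, read by qPCR from crude lysates of treated A673 or K562 cells; 24 h, 37 °C, maximum 10 uM. Normalization: housekeeper ΔCt, then DMSO ΔΔCt.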

MYB = assay: HiBiT protein abundance assay, MYB (K562 HiBiT knock-in); assay type: cell-based, human; conditions: HiBiT knock-in K562 cells, 24 hours, top dose 10 μM
Outline: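 K562 HiBiT knock-in, 24 h, 37 °C, top 10 μM final, 3-fold ×10, DMSO ≤0.25%. Lytic HiBiT luminescence; PC = parental K562, NC = DMSO; 4PL IC50.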

Target C = assay: HiBiT protein abundance assay, Target C (K562 HiBiT knock-in); assay type: cell-based, human; conditions: HiBiT knock-in K562 cells, 24 hours, top dose 10 μM
Outline: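 K562 HiBiT knock-in cells (10000/well) were treated 24 h at 37° C with a 10-point 3-fold dilution series (top 10 μM final, ≤0.25% DMSO). HiBiT luminescence was read after lytic LgBiT detection. Percent response used unmodified K562 and DMSO-treated knock-in controls, and IC50 came from a four-parameter fit at 50% of untreated.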

K562 cells = assay: Cell Titer Glo 2.0 cell viability (toxicity) assay, K562; conditions: 500 cells/well, 72 hours
[1] = MYB canonical junction mRNA, RT-qPCR, read-out: MYB CJ (decrease in CJ mRNA levels, IC50)
[2] = canonical junction qPCR panel, Table 4, read-out: MYB IC50 (decrease in CJ mRNA levels)

Structure (SMILES) | AC50 (MYB mRNA; RT-qPCR) [µM] | IC50 (MYB mRNA; [1]) [µM] | IC50 (MYB mRNA; [2]) [µM] | IC50 (MYB) [µM] | IC50 (Target C) [µM] | Effect of Exemplary Compounds on Cell Viability, K562 (K562 cells)
Cc1nc2c(C)c(O)c(-c3ccc4nc(N5CC[C@@H](NC6CC6)C5)ccc4n3)cc2o1 [Compound 217] | < 0.1 | < 0.1 | < 0.1 | < 0.1 | < 0.1 | B (B represents 100-1000 nM)
Cn1cc2cc(-c3ccc4nc(N5CCC(NC6(C)CC6)C5)ccc4n3)c(O)cc2n1 (stereo not drawn) [Compound 219] | < 0.1 | < 0.1 | < 0.1 | < 0.1 | < 0.1 | A (A represents <100 nM)
Cc1nc2cc(O)c(-c3ccc4nc(N5CC[C@@H](NC6CCC6)C5)ccc4n3)cc2o1 [Compound 229] | < 0.1 | < 0.1 | < 0.1 | < 0.1 | < 0.1 | B (B represents 100-1000 nM)
Cc1nc2cc(O)c(-c3ccc4nc(N5CC[C@H](NC6CCC6)C5)ccc4n3)cc2o1 [Compound 230] | 0.1 to 1 | 0.1 to 1 | 0.1 to 1 | 0.1 to 1 | < 0.1 | B (B represents 100-1000 nM)
Cc1nc2cc(O)c(-c3ccc4nc(N5CCC(NC(C)C)C5)ccc4n3)cc2o1 (stereo not drawn) [Compound 231] | < 0.1 | < 0.1 | < 0.1 | < 0.1 | < 0.1 | A (A represents <100 nM)
Cc1nc2c(C)c(O)c(-c3ccc4nc(N5CCC(NC6CCC6)C5)ccc4n3)cc2o1 (stereo not drawn) [Compound 235] | < 0.1 | < 0.1 | < 0.1 | < 0.1 | < 0.1 | B (B represents 100-1000 nM)
Cc1nc2c(C)c(O)c(-c3ccc4nc(N5CC[C@@H](NC6CCC6)C5)ccc4n3)cc2o1 [Compound 236] | < 0.1 | < 0.1 | < 0.1 | < 0.1 | < 0.1 | B (B represents 100-1000 nM)
Cc1nc2c(C)c(O)c(-c3ccc4nc(N5CC[C@H](NC6CCC6)C5)ccc4n3)cc2o1 [Compound 237] | < 0.1 | < 0.1 | < 0.1 | < 0.1 | < 0.1 | B (B represents 100-1000 nM)
Cc1cc(-c2ccc3nc(N4CCC(NC(C)(C)C)C4)ccc3n2)nc2cn(C)nc12 (stereo not drawn) [Compound 248] | 1 to 10 | 1 to 10 | 1 to 10 | 1 to 10 | 0.1 to 1 | C (C represents 1000-9999 nM)
Cc1c(O)c(-c2ccc3nc(N4CC[C@@H](NC(C)(C)C)C4)ccc3n2)cc2cn(C)nc12 [Compound 249] | < 0.1 | < 0.1 | < 0.1 | < 0.1 | < 0.1 | A (A represents <100 nM)
Cc1c(O)c(-c2ccc3nc(N4CC[C@H](NC(C)(C)C)C4)ccc3n2)cc2cn(C)nc12 [Compound 250] | < 0.1 | < 0.1 | < 0.1 | < 0.1 | < 0.1 | B (B represents 100-1000 nM)
COc1c(-c2ccc3nc(N4CCC(NC(C)(C)C)C4)ccc3n2)cc2c[nH]nc2c1C (stereo not drawn) [Compound 251] | > 10 | > 10 | > 10 | > 10 | 0.1 to 1 | B (B represents 100-1000 nM)
Cc1c(O)c(-c2ccc3nc(N4CCC(NCC5CC5)C4)ccc3n2)cc2cn(C)nc12 (stereo not drawn) [Compound 284, 5-(6-{3-[(cyclopropylmethyl)amino]pyrrolidin-1-yl}-1,5-naphthyridin-2-yl)-2,7-dimethylindazol-6-ol] | 0.1 to 1 | < 0.1 | < 0.1 | < 0.1 | < 0.1 | B (B represents 100-1000 nM)
Cc1c(O)c(-c2ccc3nc(N4CCC(NC5CCC5)C4)ccc3n2)cc2cn(C)nc12 (stereo not drawn) [Compound 288, 5-{6-[3-(cyclobutylamino)pyrrolidin-1-yl]-1,5-naphthyridin-2-yl}-2,7-dimethylindazol-6-ol] | < 0.1 | < 0.1 | < 0.1 | < 0.1 | < 0.1 | B (B represents 100-1000 nM)
Cc1nc2c(F)c(O)c(-c3ccc4nc(N5CCC(NC6CCC6)C5)ccc4n3)cc2o1 (stereo not drawn) [Compound 293, 6-{6-[3-(cyclobutylamino)pyrrolidin-1-yl]-1,5-naphthyridin-2-yl}-4-fluoro-2-methyl-1,3-benzoxazol-5-ol] | < 0.1 | < 0.1 | < 0.1 | < 0.1 | < 0.1 | A (A represents <100 nM)
Cn1cc2cc(-c3ccc4nc(N5CCC(NC67CC(C6)C7)C5)ccc4n3)c(O)cc2n1 (stereo not drawn) [Compound 297, 5-[6-(3-{bicyclo[1.1.1]pentan-1-ylamino}pyrrolidin-1-yl)-1,5-naphthyridin-2-yl]-2-methylindazol-6-ol] | 0.1 to 1 | 1 to 10 | 1 to 10 | 1 to 10 | 1 to 10 | D (D represents greater than 10 μM in K562 cells)
Cn1cc2nc(-c3ccc4nc(N5CCC(NC(C)(C)C)C5)ccc4n3)c(O)cc2n1 (stereo not drawn) [Compound 298, 5-{6-[3-(tert-butylamino)pyrrolidin-1-yl]-1,5-naphthyridin-2-yl}-2-methylpyrazolo[4,3-b]pyridin-6-ol] | < 0.1 | < 0.1 | < 0.1 | < 0.1 | < 0.1 | B (B represents 100-1000 nM)
Cn1cc2cc(-c3ccc4nc(N5CC[C@H](N[C@H]6C[C@@H](F)C6)C5)ccc4n3)c(O)cc2n1 [Compound 299, 2-methyl-5-{6-[(3S)-3-{[(1s,3s)-3-fluorocyclobutyl]amino}pyrrolidin-1-yl]-1,5-naphthyridin-2-yl}indazol-6-ol] | < 0.1 | < 0.1 | < 0.1 | < 0.1 | 0.1 to 1 | B (B represents 100-1000 nM)
Cc1c(O)c(-c2ccc3nc(N4CCC(NC5COC5)C4)ccc3n2)cc2cn(C)nc12 (stereo not drawn) [Compound 302, 2,7-dimethyl-5-{6-[3-(oxetan-3-ylamino)pyrrolidin-1-yl]-1,5-naphthyridin-2-yl}Indazol-6-ol] | 0.1 to 1 | 0.1 to 1 | 0.1 to 1 | 0.1 to 1 | 0.1 to 1 | C (C represents 1000-9999 nM)
Cc1nc2c(C)c(O)c(-c3ccc4nc(N5CCC(NC6(C)CC6)C5)ccc4n3)cc2o1 (stereo not drawn) [Compound 309, 2,4-dimethyl-6-(6-{3-[(1-methylcyclopropyl)amino]pyrrolidin-1-yl}-1,5-naphthyridin-2-yl)-1,3-benzoxazol-5-ol] | < 0.1 | < 0.1 | < 0.1 | < 0.1 | < 0.1 | B (B represents 100-1000 nM)
